Assay results reported in patent US20130102009A1, “SIRTUIN ACTIVATORS AND ACTIVATION ASSAYS” (priority 2010, published 2013).
Peptide text beside a SMILES is read from it. * marks the point of attachment. AMC = Cc1cc(=O)oc2cc(N*)ccc12

Legend:
[1] = target: T1, SIRT1 (Homo sapiens, UniProt Q96EB6); experiment: Steady-state kinetic parameters for SIRT1 substrates (PNC1-GDH-coupled assay); assay type: biochemical; design: kc/K1: unit not given here; details: 25° C., pH 7.5, [NAD+]o = 2 mM, [SIRT1]o 50-1,000 nM
T1 sequence (Q96EB6 1-747): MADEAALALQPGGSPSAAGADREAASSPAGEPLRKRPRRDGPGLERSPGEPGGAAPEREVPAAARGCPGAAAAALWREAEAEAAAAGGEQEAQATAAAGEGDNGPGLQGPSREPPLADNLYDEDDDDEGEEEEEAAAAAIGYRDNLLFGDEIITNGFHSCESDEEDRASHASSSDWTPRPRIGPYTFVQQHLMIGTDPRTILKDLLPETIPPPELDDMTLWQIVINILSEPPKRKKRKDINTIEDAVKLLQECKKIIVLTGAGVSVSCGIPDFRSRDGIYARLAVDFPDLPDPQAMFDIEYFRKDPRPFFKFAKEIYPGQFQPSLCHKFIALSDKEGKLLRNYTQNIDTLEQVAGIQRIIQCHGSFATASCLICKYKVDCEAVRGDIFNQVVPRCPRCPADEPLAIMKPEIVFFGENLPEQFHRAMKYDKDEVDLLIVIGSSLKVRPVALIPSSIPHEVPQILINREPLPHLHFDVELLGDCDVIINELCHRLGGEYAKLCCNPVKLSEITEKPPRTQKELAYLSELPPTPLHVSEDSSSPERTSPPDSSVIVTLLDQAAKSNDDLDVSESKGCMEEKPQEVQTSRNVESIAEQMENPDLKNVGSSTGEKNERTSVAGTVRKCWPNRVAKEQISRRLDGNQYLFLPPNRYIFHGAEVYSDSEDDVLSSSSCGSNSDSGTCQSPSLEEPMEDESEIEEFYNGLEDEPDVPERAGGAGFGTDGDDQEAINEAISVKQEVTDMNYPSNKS
Method: All peptides were prepared by BioPeptide (San Diego, Calif.) and shown to be at least 95% pure by analytical HPLC analysis. Bovine glutamate dehydrogenase (GDH), α-ketoglutarate, NADH and NAD^+ were from Sigma Chemical Company. Full-length, human SIRT1 and the truncated version used for biophysical studies SIRT1(183-664) were prepared as described previously, and shown to have equivalent kinetic properties (Milne et al. (2007) Nature 450, 712-716). The nicotinamidase PNC1 was prepared as described by Denu and colleagues (Smith et al. (2009) Anal Biochem 394, 101-109).
To determine the interaction of STACs with SIRT1 two kinetic methods were employed. One, which was used for TAMRA-peptide, desTAMRA-peptide, des(biotin,TAMRA)-peptide, and p53-20 mer, used a previously described mass spectroscopic method for detection of peptide reaction products (Milne et al. (2007) Nature 450, 712-716). The other, used with peptides of general structure Ac-Arg-His-Lys-Lys^Ac-X, used a continuous, enzyme-coupled method reported previously (Smith et al. (2009) Anal Biochem 394, 101-109), in which the SRT1 product nicotinamide is first converted into nicotinic acid and ammonia by the action of PNC1, and the ammonia then used by GDH to convert α-ketoglutarate into glutamate. This reaction occurs with oxidation of NADH to NAD^+ which is accompanied by a change in absorbance at 340 nm (Δε340=−6,200 M^−1 cm^−1).
The kinetic experiments used to characterize activators were run on a Perkin Elmer Lambda 25 spectrophotometer equipped with a water-jacketed, eight-cell changer maintained at 25° C. In a typical kinetic experiment, all components of the reaction solution except SIRT1 were added to a 1 mL cuvette and allowed to reach thermal equilibrium. Final concentrations of the coupling system components were: 1 μM PNC1, 0.23 mM NADH, 3.4 mM α-ketoglutarate, and 20 U/mL bovine GDH. This solution also contained peptide substrate, NAD^.0., and activator, at concentrations indicated in the text. The final DMSO concentration was kept constant at 1%, and the buffer used in these experiments was 50 mM HEPES, 150 mM NaCl, pH 7.5. While the system was reaching thermal equilibrium, the absorbance was monitored to provide an accurate estimate of the background rate, which was subtracted from the reaction rate after the addition of SIRT1.
The parameters reported in this table were all determined using the PNC1-GDH-coupled assay. Kinetic parameters for the four 20 mers were also estimated using the mass spectroscopy-based assay first described by Milne et al. ((2007) Nature 450, 712-716) and agree with those reported in Table 3.

[2] = target: T2, SIRT1(183-664) (Homo sapiens, UniProt Q96EB6); experiment: ITC binding of STACs to SIRT1(183-664); details: dissociation constant of SRT:SIRT1 complex, read-out: Kx (μM), ITC
T2 construct: the truncated version used for biophysical studies SIRT1(183-664); made in house
T2 sequence (Q96EB6 183-664): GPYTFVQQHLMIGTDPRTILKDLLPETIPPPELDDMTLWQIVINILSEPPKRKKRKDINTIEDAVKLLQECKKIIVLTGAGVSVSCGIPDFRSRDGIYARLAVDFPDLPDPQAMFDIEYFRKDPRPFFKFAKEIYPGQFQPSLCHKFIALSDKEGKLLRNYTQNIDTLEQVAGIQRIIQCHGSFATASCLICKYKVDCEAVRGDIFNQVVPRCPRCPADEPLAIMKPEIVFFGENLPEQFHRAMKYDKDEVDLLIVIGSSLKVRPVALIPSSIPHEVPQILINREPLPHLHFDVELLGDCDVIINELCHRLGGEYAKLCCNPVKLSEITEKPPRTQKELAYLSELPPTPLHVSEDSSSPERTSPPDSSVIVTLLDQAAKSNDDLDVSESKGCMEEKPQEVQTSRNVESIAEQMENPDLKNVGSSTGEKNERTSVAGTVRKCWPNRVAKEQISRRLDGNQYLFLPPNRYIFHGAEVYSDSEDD
Method: All peptides were prepared by BioPeptide (San Diego, Calif.) and shown to be at least 95% pure by analytical HPLC analysis. Bovine glutamate dehydrogenase (GDH), α-ketoglutarate, NADH and NAD^+ were from Sigma Chemical Company. Full-length, human SIRT1 and the truncated version used for biophysical studies SIRT1(183-664) were prepared as described previously, and shown to have equivalent kinetic properties (Milne et al. (2007) Nature 450, 712-716). The nicotinamidase PNC1 was prepared as described by Denu and colleagues (Smith et al. (2009) Anal Biochem 394, 101-109). ITC experiments were performed using either a VP-ITC system or iTC200 system (MicroCal) at 26° C. in a buffer composed of 137 mM NaCl, 2.7 mM KCl, 1 mM MgCl2, 2 mM TCEP, 5% (v/v) glycerol and 50 mM HEPES-NaOH, pH 7.3. SIRT1(183-664) was purified and dialyzed against the buffer, centrifuged, and degassed before the experiment. The peptide and compounds were dissolved in the final dialysis buffer and their pH values were adjusted to match that of the protein solution. […] To characterize this interaction using the iTC200 system, 1 mM TAMRA-peptide was injected in 20 aliquots of 2 μL, (except the first injection, which was 0.5 μL) into a 0.202 mL sample cell containing 100 μM STAC. For STACs with poor solubility, the concentrations were adjusted accordingly. […] To characterize the interaction of a STAC with SIRT1(183-664) on the VP-ITC system, 100 μM enzyme was injected in 35 aliquots of 8 μL, (except the first injection, which was 2 μL) into a 1.47 mL sample cell containing 10 μM STAC. […] In all cases, data was corrected for the heat of dilution and fitted using a nonlinear least-squares routine using a single-site binding model with Origin for ITC v7.0383 (Microcal) with the stoichiometry (n), the enthalpy of the reaction (ΔH) and the association constant (Ka) calculated.

Work on `CC(=O)NCCCC[C@H](NC(=O)[C@H](CCCCN)NC(=O)[C@H](Cc1c[nH]cn1)NC(=O)[C@H](CCCNC(=N)N)NC(C)=O)C(=O)Nc1ccc2c(C)cc(=O)oc2c1` [RHKK^Ac-AMC, Ac-Arg-His-Lys-Lys^Ac-AMC] (Ac-RHKK(Ac)-{AMC}) yielded a kc [1] of 0.091 s⁻¹ and a kc/K1 [1] of 0.8.

`CC(=O)NCCCC[C@H](NC(=O)[C@H](CCCCN)NC(=O)[C@H](Cc1c[nH]cn1)NC(=O)[C@H](CCCNC(=N)N)NC(C)=O)C(N)=O` [RHKK^Ac, Ac-Arg-His-Lys-Lys^Ac-NH2] (Ac-RHKK(Ac)-NH2) gave a kc [1] of 0.14 s⁻¹ and a kc/K1 [1] of 6.0.

For `CC(=O)NCCCC[C@H](NC(=O)[C@H](CCCCN)NC(=O)[C@H](Cc1c[nH]cn1)NC(=O)[C@H](CCCNC(=N)N)NC(C)=O)C(=O)N[C@@H](Cc1c[nH]c2ccccc12)C(N)=O` [RHKK^AcW, Ac-Arg-His-Lys-Lys^Ac-Trp-NH2] (Ac-RHKK(Ac)W-NH2), the kc [1] was 0.19 s⁻¹ and the kc/K1 [1] was 48.

“Ac-EEK^(biotin)GQSTSSHSK^AcNle-STEGK^(5-TMR)EE-NH2 [TAMRA-peptide]” was tested, and the Km [1] was 8.3 µM, the kc [1] was 0.036 s⁻¹ and the kc/K1 [1] was 4.3.

Compound SKKGQSTSRHKK^AcLJKTEGP [p53-20mer] has a Km [1] of 8.5 µM, a kc [1] of 0.36 s⁻¹ and a kc/K1 [1] of 42.

`CC(=O)NCCCC[C@H](NC(=O)[C@H](CCCCN)NC(=O)[C@H](Cc1c[nH]cn1)NC(=O)[C@H](CCCNC(=N)N)NC(C)=O)C(=O)N[C@@H](Cc1ccccc1)C(N)=O` [RHKK^AcF, Ac-Arg-His-Lys-Lys^Ac-Phe-NH2] (Ac-RHKK(Ac)F-NH2) was tested, and the kc [1] was 0.16 s⁻¹ and the kc/K1 [1] was 23.

With `CN(C)CCCNc1cc(-c2nc3c(NC(=O)c4ccc(CN5CCNCC5)cc4)cccc3[nH]2)ccn1` [drawing 21] the Kd [2] was 0.32 µM.

In the case of `CC(=O)NCCCC[C@H](NC(=O)[C@H](CCCCN)NC(=O)[C@H](Cc1c[nH]cn1)NC(=O)[C@H](CCCNC(=N)N)NC(C)=O)C(=O)N[C@@H](C)C(N)=O` [RHKK^AcA, Ac-Arg-His-Lys-Lys^Ac-Ala] (Ac-RHKK(Ac)A-NH2), the kc [1] was 0.15 s⁻¹ and the kc/K1 [1] was 12.

“EEKGQSTSSHK^AcJSTEGKEE [des(Biotin,TAMRA)-peptide]” showed a Km [1] of 40 µM, a kc [1] of 0.044 s⁻¹ and a kc/K1 [1] of 1.1.

With `CCCNc1cc(-c2nc3c(NC(=O)c4ccc(CN5CCNCC5)cc4)cccc3[nH]2)ccn1` [drawing 20] the Kd [2] was 0.43 µM.
